# From patent US20240366564A1, “Use of Chlorophyll Derivatives for the Treatment of SARS-CoV-2 Infection” (priority 2021, published 2024)
# “Also recorded” adds a separate entry of the source. Read-outs that look alike come from different tables or passages of the source.
# Legend:
# [1] = biological target: T1, binding of SARS-CoV-2 Spike protein (S1 subunit) to ACE2 (UniProt P0DTC2+Q9BYF1); assay: biochemical
# T1 construct: a fusion protein of the SARS-CoV-2 spike protein S1 subunit and the horseradish peroxidase (HRP) enzyme
# [2] = test system: SARS-CoV-2 USA-WA1/2020 virus; assay type: cell-based
# [3] = test system: SARS-CoV-2-infected permissive cell lines (Vero E6, Huh-7.5, A549 ACE2+, HT1080 ACE2+)
# T1 sequence (Q9BYF1 18-740, one chain of several): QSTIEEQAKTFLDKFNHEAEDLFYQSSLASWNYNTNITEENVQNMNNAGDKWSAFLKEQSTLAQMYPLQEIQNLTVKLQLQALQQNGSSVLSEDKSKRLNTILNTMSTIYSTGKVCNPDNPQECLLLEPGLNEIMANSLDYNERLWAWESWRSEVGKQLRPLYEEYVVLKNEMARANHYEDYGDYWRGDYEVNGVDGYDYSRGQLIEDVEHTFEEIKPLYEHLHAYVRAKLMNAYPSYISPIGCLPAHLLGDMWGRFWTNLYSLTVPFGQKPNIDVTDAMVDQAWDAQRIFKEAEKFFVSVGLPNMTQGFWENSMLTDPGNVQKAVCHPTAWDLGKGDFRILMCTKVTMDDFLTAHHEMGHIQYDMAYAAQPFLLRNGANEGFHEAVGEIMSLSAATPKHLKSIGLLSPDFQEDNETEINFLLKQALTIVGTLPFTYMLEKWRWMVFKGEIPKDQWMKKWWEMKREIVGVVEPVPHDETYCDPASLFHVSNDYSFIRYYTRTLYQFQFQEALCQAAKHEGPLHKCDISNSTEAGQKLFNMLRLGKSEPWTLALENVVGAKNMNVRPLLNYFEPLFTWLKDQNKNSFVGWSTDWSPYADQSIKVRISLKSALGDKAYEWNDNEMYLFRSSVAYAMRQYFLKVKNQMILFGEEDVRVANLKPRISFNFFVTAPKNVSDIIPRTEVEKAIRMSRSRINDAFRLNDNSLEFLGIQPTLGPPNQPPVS
Compound,Active (Y or N) [1],also measured
Vitamin B12,N,inhibition of the binding of SARS-CoV-2 Spike protein to ACE2 (in words) [1]: non-active
Verteporfin,Y,IC50 ([1]; read-out: IC50): 225 nM
MnTBAP,N,
C=Cc1c(C)c2cc3nc(c4c5[n-]c(cc6nc(cc1[n-]2)C(C=O)=C6CC)c(C)c5C(=O)[C@@H]4C(=O)OC)[C@@H](CCC(=O)OC/C=C(\C)CCC[C@H](C)CCC[C@H](C)CCCC(C)C)[C@@H]3C.[Mg+2] [Chlorophyll B],N,
N-Methyl Protoporphyrin,N,
C=CC1=C(C)c2cc3[nH]c(cc4nc(cc5[nH]c(cc1n2)c(C)c5CCC(=O)O)C(CCC(=O)O)=C4C)c(C)c3C=C [Protoporphyrin IX],,IC50 [1]: 1200 nM
N-Methyl Mesoporphyrin,N,
C=Cc1c(C)c2cc3nc(c4c5[nH]c(cc6nc(cc1[nH]2)C(C)=C6CC)c(C)c5C(=O)[C@@H]4C(=O)OC)[C@@H](CCC(=O)O)[C@@H]3C [Pheophorbide A],Y,IC50 [1]: 500 nM; inhibition of the binding of SARS-CoV-2 Spike protein to ACE2 (in words) [1]: dose dependent decrease in binding; also recorded: dose-dependent inhibition; antiviral activity under light exposure versus dark [2]: generally improved; antiviral activity without photoactivation [2]: exhibit antiviral activity in the dark; antiviral effect with pre-treatment versus treatment after infection [2]: more pronounced; inhibition of SARS-CoV-2 infection in culture [2]: significantly inhibits; toxicity to the infected cells relative to antiviral doses [3]: antiviral activity was detected at doses lower than the dosing where pheophorbide A was toxic
Coproporphyrin III,N,
C=Cc1c(C)c2cc3nc(c4c5[n-]c(cc6nc(cc1[n-]2)C(C)=C6CC)c(C)c5C(=O)[C@@H]4C(=O)OC)[C@@H](CCC(=O)OC/C=C(\C)CCC[C@H](C)CCC[C@H](C)CCCC(C)C)[C@@H]3C.[Mg+2] [Chlorophyll A],N,
C=Cc1c(C)c2cc3nc(c(CC(=O)O)c4[nH]c(cc5nc(cc1[nH]2)C(C)=C5CC)c(C)c4C(=O)O)[C@@H](CCC(=O)O)[C@@H]3C [Chlorin E6],Y (weak),IC50 ([1]; read-out: IC50): 5000 nM
"C1=Cc2nc1cc1ccc([nH]1)c(-c1ccccc1)c1nc(cc3ccc([nH]3)c2-c2ccccc2)C=C1 [5,15-diphenyl-21H,23H-porphine]",N,
C[n+]1ccc(-c2c3nc(c(-c4cc[n+](C)cc4)c4ccc([nH]4)c(-c4cc[n+](C)cc4)c4ccc([nH]4)c(-c4cc[n+](C)cc4)c4nc2C=C4)C=C3)cc1 [TmPyP4],N,
C1=Cc2cc3ccc(cc4nc(cc5ccc(cc1n2)[nH]5)C=C4)[nH]3 [Porphine],N,
